Experimental data published in patent publication US20260144796A1, “Compounds and Methods for Improving Health” (Acurx Pharmaceuticals, Inc., priority 2022, published 2026).
≈ marks a conversion by molar mass, not a printed value. Like-named read-outs stand apart in the source and are kept apart here.

Assays:
[1] = tested on: Paeniclostridium sordellii; assay: MIC determination, stool Firmicute isolates; assay type: cell-based; settings: Paraclostridium sordellii
[2] = tested on: gut microbiome; assay: Phase 2a CDI clinical trial, gut microbiome (metagenomics); assay type: in vivo, human; settings: CDI patients; for Proportion of isolated Firmicutes, Peptostreptococcaceae: baseline 2%; for Proportion of isolated Firmicutes, Other: baseline 5%; for Proportion of isolated Firmicutes, Ruminococcaceae: baseline 7%; for Proportion of isolated Firmicutes, Streptococcaceae: baseline 13%; for Proportion of isolated Firmicutes, Erysipelotrichaceae: baseline 18%; for Proportion of isolated Firmicutes, Lachnospiraceae: baseline 30%
Protocol: Phase 2a of this trial was an open label cohort of 10 subjects from study centers in the United States. In this cohort, 10 patients with diarrhea caused by mild or moderate C. difficile diagnosed via toxin EIA+ were treated with ibezapolstat 450 mg orally, twice daily for 10 days. All patients were followed for recurrence for 28±2 days. Stool was collected during course of therapy and at follow up. Patient fecal samples were evaluated for C. difficile culture and microbiome changes. […] Favorable microbiome changes included overgrowth of Actinobacteria and Firmicutes phylum species while on therapy. These findings support that microbiome effects may be predictive of beneficial patient outcomes including low rates of recurrence.
Phase 2a of this trial was an open label cohort of 10 subjects from study centers in the United States. In this cohort, 10 patients with diarrhea caused by mild or moderate C. difficile diagnosed via toxin EIA+ were treated with ibezapolstat 450 mg orally, twice daily for 10 days. Stool was collected during the course of therapy and at follow up.
Stool DNA was extracted using a DNAeasy Power Soil Pro kit (Qiagen, catalog number 1288-100) in a QiaCube automated DNA extraction system as previously described. (Garey K W, et al. A randomized, double-blind, placebo-controlled, single and multiple ascending dose Phase 1 study to determine the safety, pharmacokinetics and food and faecal microbiome effects of ibezapolstat administered orally to healthy subjects. J Antimicrob Chemother 2020; 75 (12): 3635-3643). Shotgun metagenomic sequencing was carried out at the University of Houston Sequencing and Gene Editing Core (Houston, TX USA) using the Nextera DNA Flex Library Prep Kit for DNA library preparation and an Illumina NextSeq 500 platform for sequencing. CLC Genomic Workbench version 12 (Qiagen) was used for metagenomic assembly and creation of the abundance table.
16S rRNA sequencing was performed to characterize microbial taxonomy as described in Gonzales-Luna 2021. The V3-V4 region of the 16S rRNA gene was sequenced using an Illumina-based sequencing platform with a minimum of 15,000 reads per sample to assess the gut microbiome community structure. Quality filtered sequence reads with at least 97% similarity were clustered into Operational Taxonomic Units (OTUs) and representative sequences from each OTU were assigned a taxonomic identity at the species level by searching against the NCBI 16S rRNA sequence database (release date Sep. 1, 2018) using NCBI BLAST+ package v2.8.1 2018.
The DNA extracted from fecal samples previously used for 16S rRNA sequencing was shotgun metagenome sequenced using an Illumina-based platform for analysis of microbiome functional genes. The functional gene profiling of the shotgun metagenome was performed using HUMAnN2 v0.11.2 pipeline.35 In the preprocessing step, quality filtering of sequencing reads was performed and followed by screening and removal of contaminant host (human) reads. Trimmomatic v0.38 was used for the filtering and trimming of raw sequence data with the default cut-off settings. The reads were searched against a human genome database in paired-end mode using bowtie2 algorithm and were discarded if they were mapped to the database. To obtain the gene family profiles, these quality-controlled metagenome sequences were first searched against a nucleotide database (ChocoPhlAn) using bowtie2 and then against a protein database (UniRef90) using diamond. All the identified gene families were annotated using UniRef90 and pathways using MetaCyc identifiers.

[3] = tested on: Longibaculum sp.; assay: MIC determination, stool Firmicute isolates; assay type: cell-based; settings: N=1
[4] = 450 mg orally twice daily 10 days, day 3
[5] = 450 mg orally twice daily 10 days, day 5
[6] = 450 mg orally twice daily 10 days, day 8
[7] = 450 mg orally twice daily 10 days, day 10
[8] = 450 mg orally twice daily 10 days, day 12

O=c1[nH]c(NCc2ccc(Cl)c(Cl)c2)nc2ncn(CCN3CCOCC3)c12 [Ibezapolstat, 2-((3,4-dichlorobenzyl)amino)-7-(2-morpholinoethyl)-1,7-dihydro-6H-purin-6-one]
MIC ([1]; read-out: MIC Max): 12.5 µg/mL (≈ 29.5 µM) | MIC50 ([1]; Paeniclostridium sordellii, N=4): 1.5 µg/mL (≈ 3.54 µM) | MIC ([1]; Paeniclostridium sordellii, N=4, read-out: MIC Min): 0.75 µg/mL (≈ 1.77 µM) | Proportion of isolated Firmicutes, Eubacteriales Family XIII [2, 4]: 2% | Proportion of isolated Firmicutes, Peptostreptococcaceae [2, 4]: 1% | Proportion of isolated Firmicutes, Other [2, 4]: 9% | Proportion of isolated Firmicutes, Ruminococcaceae [2, 4]: 25% | Proportion of isolated Firmicutes, Streptococcaceae [2, 4]: 3% | Proportion of isolated Firmicutes, Erysipelotrichaceae [2, 4]: 24% | Proportion of isolated Firmicutes, Lachnospiraceae [2, 4]: 37% | Proportion of isolated Firmicutes, Eubacteriales Family XIII [2, 5]: 1% | Proportion of isolated Firmicutes, Other [2, 5]: 10% | Proportion of isolated Firmicutes, Ruminococcaceae [2, 5]: 38% | Proportion of isolated Firmicutes, Streptococcaceae [2, 5]: 1% | Proportion of isolated Firmicutes, Erysipelotrichaceae [2, 5]: 10% | Proportion of isolated Firmicutes, Lachnospiraceae [2, 5]: 38% | Proportion of isolated Firmicutes, Eubacteriales Family XIII [2, 6]: 3% | Proportion of isolated Firmicutes, Peptostreptococcaceae [2, 6]: 5% | Proportion of isolated Firmicutes, Other [2, 6]: 9% | Proportion of isolated Firmicutes, Ruminococcaceae [2, 6]: 30% | Proportion of isolated Firmicutes, Streptococcaceae [2, 6]: 4% | Proportion of isolated Firmicutes, Erysipelotrichaceae [2, 6]: 9% | Proportion of isolated Firmicutes, Veillonellaceae ([2]; 450 mg orally twice daily 10 days, day 8, baseline 19%): 5% | Proportion of isolated Firmicutes, Lachnospiraceae [2, 6]: 33% | Proportion of isolated Firmicutes, Eubacteriales Family XIII [2, 7]: 5% | Proportion of isolated Firmicutes, Peptostreptococcaceae [2, 7]: 4% | Proportion of isolated Firmicutes, Other [2, 7]: 8% | Proportion of isolated Firmicutes, Ruminococcaceae [2, 7]: 26% | Proportion of isolated Firmicutes, Streptococcaceae [2, 7]: 5% | Proportion of isolated Firmicutes, Erysipelotrichaceae [2, 7]: 17% | Proportion of isolated Firmicutes, Lachnospiraceae [2, 7]: 35% | Proportion of isolated Firmicutes, Eubacteriales Family XIII [2, 8]: 4% | Proportion of isolated Firmicutes, Peptostreptococcaceae [2, 8]: 6% | Proportion of isolated Firmicutes, Other [2, 8]: 10% | Proportion of isolated Firmicutes, Ruminococcaceae [2, 8]: 24% | Proportion of isolated Firmicutes, Streptococcaceae [2, 8]: 2% | Proportion of isolated Firmicutes, Erysipelotrichaceae [2, 8]: 6% | Proportion of isolated Firmicutes, Lachnospiraceae [2, 8]: 44% | Actinobacteria abundance after starting treatment ([2]; primarily Coriobacteriales): increased in abundance | MIC50 [3]: 50 µg/mL (≈ 118 µM)
